# Test results published in a melting point compilation (Tetko et al.; mined from patent text by program, amines drawn as free bases though some values may be those of a salt).
row,SMILES,melting point
1,CC[C@H](C)[C@H](NC(=O)OC(C)(C)C)C(=O)N[C@H](C(=O)N[C@@H](Cc1ccc2ccccc2c1)[C@@H](O)[C@@H](O)CC(C)C)[C@@H](C)CC,168 to 169 °C
2,Cc1ccc(S(=O)(=O)N2CCN(C(=O)c3ccc(Nc4ccnc5cc(C(F)(F)F)ccc45)cc3)CC2)cc1,215 to 217 °C
3,O=C(O)c1cc(CCCBr)ccc1O,68 to 73 °C
4,CN(C)C(=O)N1CCC(c2nn(-c3ccc(C(F)(F)F)cc3)c3ccccc23)CC1,117 to 119 °C
5,CCCCOCCOc1ccc(-c2ccc(N(C)CCC)c(C=CC(=O)O)c2)cc1,95 to 97 °C
6,COc1cc(-c2ncn(-c3cc(OC)c(OC)c(OC)c3)c2-c2ccc(N(C)C)cc2)cc(OC)c1OC,169 to 171 °C
7,CN(C)C=Nc1c(Cl)cc(N=Cc2ccc(N(C)C)cc2Cl)cc1Cl,139 to 140 °C
8,CC(=O)Oc1c(C(C)C)cc(-c2c3ccccc3cc3sc(C)c(C)c23)cc1C(C)C,243 to 245 °C
9,Nc1nc(-c2cc(Cl)ccc2Cl)nc(N2CCN(C(c3ccccc3)c3ccccc3)CC2)n1,217 to 218 °C
10,CCOC(=O)C1=C(C)NC(C(OCC)OCC)=C(C(=O)OCC)C1c1cccc(O)c1 (configuration not stated),107 to 108 °C
11,COCCNS(=O)(=O)c1ccc2[nH]c(=O)c(=O)[nH]c2c1,264 to 267 °C
12,COc1ccc(-c2ccc3c(-c4ccccc4)c(OC)ccc3c2)cc1,157 to 160 °C
13,CCOc1ccc(S(=O)(=O)N2CCNCC2)cc1-c1nc2c(OC)cccc2c(=O)[nH]1,163 to 165 °C
14,O=C(O)CCCCCSC1=CCCC1=O,77.5 to 78 °C
15,COc1cccc(C=C2N=C(c3ccccc3)OC2=O)c1,100 to 102 °C
16,CCn1c(CCO)nc(C(C)C)c1Sc1cc(Cl)cc(Cl)c1,80 to 81 °C
17,CCC(=O)C1=C(O)CC(c2ccc3c(c2)OCO3)CC1=O (configuration not stated),129 °C
18,C=CC(c1ccc(C(C)C)cc1)c1c(C)c(NC=O)c(C)c(C)c1O (configuration not stated),170 to 171 °C
19,O=C(Oc1ccc([N+](=O)[O-])cc1)c1cnc2cc(I)ccc2n1,228 to 230 °C
20,CS(=O)(=O)c1ccc(-n2nc(C(F)(F)F)cc2-c2nc3cc(F)ccc3s2)cc1,204 to 205 °C
21,Cn1cc2c(C#CCO)cccc2n1,139 to 140 °C
22,O=C(OCc1ccccc1)N1CCc2c(sc3nc(CCl)c(Cl)c(-c4ccc(OCc5ccccc5)cc4)c23)C1,144 to 145 °C
23,CCC(CC)Nc1c([N+](=O)[O-])cc(CC(=O)O)c(C(C)C)c1[N+](=O)[O-],116 to 118 °C

row,SMILES,melting point
1,CN(C(=O)c1n[nH]c2c(=O)[nH]c3cc(Cl)ccc3c(=O)c12)c1ccccc1,308 °C
2,Cc1cc(N(C)CC(=O)N2CCN(Cc3ccc4c(c3)OCO4)CC2)ccc1Oc1ccc(NC(=O)c2ccc(C(F)(F)F)cc2)cn1,128 to 131 °C
3,COc1ccc2[nH]c(=O)c(-c3nnn(Cc4cccc(OCc5ccc6ccccc6n5)c4)n3)cc2c1,213 to 214 °C
4,Cn1ncc(SCc2ccccc2)c(Cl)c1=O,102 to 104 °C
5,Cc1c(C(=O)C(N)=O)c2c(OCC(=O)O)cccc2n1Cc1ccccc1,218 to 220 °C
6,O=C(NCCO)c1cccc(-c2cccc3nc(Cc4cccc(C(F)(F)F)c4)sc23)c1,94 to 95 °C
7,O=CCCCCCN1C(=O)c2ccccc2C1=O,69 to 71 °C
8,COc1ccccc1C1(O)C(O)CCC2CN(Cc3ccccc3)CC21 (configuration not stated),140 °C
9,CSCC(O)(Cn1cncn1)c1ccc(Cl)cc1Cl (configuration not stated),117 to 119 °C
10,COc1ccc(-c2cnc3c(-c4ccccc4)nc(-c4cccc(OC)c4)nc3c2)cc1,131 to 132 °C
11,O=C(O)CCn1nc(-c2c(-c3ccccc3)nn3ccccc23)ccc1=O,156 °C
12,O=C(O)c1cncc(O)c1C(=O)c1cc(Cl)ccc1F,262 to 264 °C
13,CCOC(=O)Cn1cnc(-c2cc(OC)c(OC)c(OC)c2)c1-c1ccc(C(F)(F)F)cc1,129 to 134 °C
14,CCCCSc1cc(C(=O)OCC)cc(S(N)(=O)=O)c1Cc1ccccc1,120 to 122 °C
15,COc1cc2c(cc1OC)C(C(=O)O)SCC2 (configuration not stated),167 to 169 °C
16,COC(=O)c1ccc(Cn2cnc3c(Cl)nc(N)nc32)cc1,150 to 155 °C
17,O=C(Nc1cc(Cl)ccn1)c1ccccn1,118 to 120 °C
18,Clc1cc(Oc2cc(Cl)nc(-c3ccc(Cl)s3)n2)ccn1,154 to 156 °C
19,O=C(O)c1cc(Cl)cs1,138 °C
20,CC(C)(C)C1(O)CCN(CC23CC(c4ccc(Cl)cc42)c2ccc(Cl)cc23)CC1,194 to 196 °C
21,COc1ccc(COc2nc(Cl)c(C(C)C)c(OCc3ccc(OC)cc3)n2)cc1,69 to 70 °C
22,Cc1cccc2c(C=C(Br)Br)csc12,75 to 78 °C
23,CC(C)(C)OC(=O)N1[C@@H](c2ccccc2)[C@H](C(=O)OC(=O)[C@@H]2OC(C)(C)N(C(=O)OC(C)(C)C)[C@H]2c2ccccc2)OC1(C)C,46 °C

row,SMILES,melting point
1,CC(C)N(NC(=O)OC(C)(C)C)C(=O)NCC(F)(F)F,90 to 94 °C
2,COc1ccc(S(=O)(=O)c2ccccc2)cc1S(=O)(=O)NCCc1cccnc1,181 to 183 °C
3,Cc1c(Sc2cccnn2)oc2ccc(Cl)cc12,131 to 134 °C
4,[N-]=[N+]=Nc1c(F)c(F)c(C(=O)O)c(F)c1F,140 to 141 °C
5,CCCCCc1c(-c2ccc3cc(OC)ccc3c2)n(Cc2ccccc2)c2ccccc12,76 to 80 °C
6,"Cc1[nH]cnc1CC1CCc2c(c3ccccc3n2C)C1=O (single isomer, unassigned; (+))",230 to 232 °C
7,CCC(CC)C(=O)N1CC(NC(=O)Nc2cccc(C(=O)O)c2)C(=O)N(CC(=O)c2ccccc2C)c2cc(C)ccc21 (configuration not stated),244 to 246 °C
8,CCCCCCCCCCCCCCOc1ccc(CC(=O)OC)cc1,36 to 38 °C
9,COC(=O)C(C(=O)OC)C(Cc1cc(C(F)(F)F)ccc1[N+](=O)[O-])c1ccc(OC)cc1 (configuration not stated),110 to 112 °C
10,C=C(c1ccc(N(CC)CC)cc1)c1ccc(N(CC)CC)cc1,100 to 102 °C
11,CC(C)(CO)c1ccc(C(=O)Nc2cn3cc(-n4ccnc4)ccc3n2)cc1,278 to 280 °C
12,COC(=O)CCc1ccc2c(c1)nc(N)c1ncn(CC(C)(C)O)c12,201 to 205 °C
13,CC(C)(C)c1cc(OCCCCCCC(=O)O)cc(C(C)(C)C)c1,88 to 90 °C
14,CCCOc1ccc(/C=C/C(=O)O)cc1-c1nc2c(c(C)nn2CCC)c(=O)[nH]1,231 to 232 °C
15,Cc1ccnc(N=C2SC[C@@H]3Cc4ccccc4CN23)n1,179 °C
16,COC(=S)c1nc(C)c(N)nc1N,158 to 160 °C
17,CCOCCNC(=O)n1cc(F)c(=O)[nH]c1=O,134 to 135 °C
18,Cc1noc(NS(=O)(=O)c2ccccc2-c2ccc(CC(C)C)cc2CO)c1C,60 to 67 °C
19,COc1cc2cc3c(Nc4ccc(Sc5nccn5C)c(Cl)c4)c(C#N)cnc3cc2cc1OCCN1CCN(C)CC1,184 to 186 °C
20,O=C(NCC1COCCO1)C1CCCN(c2cccc3c2C(=O)N(Cc2ccncc2)C3=O)C1 (configuration not stated),186 to 187 °C
21,CCC(=O)NC[C@@H]1C[C@H]1c1cccc2nn(C)cc12 (relative stereo),79 to 80 °C
